Data taken from patent US10844057B2, “Process for preparing JAK inhibitors and intermediates thereof” (priority 2018, dated 2020).
Where two headings read alike, the source gives them in different places.

Legend:
JAK2 = JAK2 (Homo sapiens (Human), UniProt O60674); test: Biochemical JAK kinase assay (LanthaScreen), JAK2
Method: (§1) Assay 1: Biochemical JAK Kinase Assays
(§2) A panel of four LanthaScreen JAK biochemical assays (JAK1, 2, 3 and Tyk2) were carried in a common kinase reaction buffer (50 mM HEPES, pH 7.5, 0.01% Brij-35, 10 mM MgCl2, and 1 mM EGTA). Recombinant GST-tagged JAK enzymes and a GFP-tagged STAT1 peptide substrate were obtained from Life Technologies.
(§3) Serially diluted compounds were pre-incubated with each of the four JAK enzymes and the substrate in white 384-well microplates (Corning) at ambient temperature for 1 h. ATP was subsequently added to initiate the kinase reactions in 10 μL total volume, with 1% DMSO. […] Kinase reactions were allowed to proceed for 1 hour at ambient temperature before a 10 μL preparation of EDTA (10 mM final concentration) and Tb-anti-pSTAT1 (pTyr701) antibody (Life Technologies, 2 nM final concentration) in TR-FRET dilution buffer (Life Technologies) was added. The plates were allowed to incubate at ambient temperature for 1 h before being read on the EnVision reader (Perkin Elmer). Emission ratio signals (520 nm/495 nm) were recorded and utilized to calculate the percent inhibition values based on DMSO and background controls.
(§4) For dose-response analysis, percent inhibition data were plotted vs. compound concentrations, and IC50 values were determined from a 4-parameter robust fit model with the Prism software (GraphPad Software). Results were expressed as pIC50 (negative logarithm of IC50) and subsequently converted to pKi (negative logarithm of dissociation constant, Ki) using the Cheng-Prusoff equation.

Tyk2 = Tyk2 (Homo sapiens (Human), UniProt P29597); test: Biochemical JAK kinase assay (LanthaScreen), Tyk2; conditions: converted from pIC50 using Cheng-Prusoff; ATP 10 μM
Sequence of Tyk2 (P29597 whole entry): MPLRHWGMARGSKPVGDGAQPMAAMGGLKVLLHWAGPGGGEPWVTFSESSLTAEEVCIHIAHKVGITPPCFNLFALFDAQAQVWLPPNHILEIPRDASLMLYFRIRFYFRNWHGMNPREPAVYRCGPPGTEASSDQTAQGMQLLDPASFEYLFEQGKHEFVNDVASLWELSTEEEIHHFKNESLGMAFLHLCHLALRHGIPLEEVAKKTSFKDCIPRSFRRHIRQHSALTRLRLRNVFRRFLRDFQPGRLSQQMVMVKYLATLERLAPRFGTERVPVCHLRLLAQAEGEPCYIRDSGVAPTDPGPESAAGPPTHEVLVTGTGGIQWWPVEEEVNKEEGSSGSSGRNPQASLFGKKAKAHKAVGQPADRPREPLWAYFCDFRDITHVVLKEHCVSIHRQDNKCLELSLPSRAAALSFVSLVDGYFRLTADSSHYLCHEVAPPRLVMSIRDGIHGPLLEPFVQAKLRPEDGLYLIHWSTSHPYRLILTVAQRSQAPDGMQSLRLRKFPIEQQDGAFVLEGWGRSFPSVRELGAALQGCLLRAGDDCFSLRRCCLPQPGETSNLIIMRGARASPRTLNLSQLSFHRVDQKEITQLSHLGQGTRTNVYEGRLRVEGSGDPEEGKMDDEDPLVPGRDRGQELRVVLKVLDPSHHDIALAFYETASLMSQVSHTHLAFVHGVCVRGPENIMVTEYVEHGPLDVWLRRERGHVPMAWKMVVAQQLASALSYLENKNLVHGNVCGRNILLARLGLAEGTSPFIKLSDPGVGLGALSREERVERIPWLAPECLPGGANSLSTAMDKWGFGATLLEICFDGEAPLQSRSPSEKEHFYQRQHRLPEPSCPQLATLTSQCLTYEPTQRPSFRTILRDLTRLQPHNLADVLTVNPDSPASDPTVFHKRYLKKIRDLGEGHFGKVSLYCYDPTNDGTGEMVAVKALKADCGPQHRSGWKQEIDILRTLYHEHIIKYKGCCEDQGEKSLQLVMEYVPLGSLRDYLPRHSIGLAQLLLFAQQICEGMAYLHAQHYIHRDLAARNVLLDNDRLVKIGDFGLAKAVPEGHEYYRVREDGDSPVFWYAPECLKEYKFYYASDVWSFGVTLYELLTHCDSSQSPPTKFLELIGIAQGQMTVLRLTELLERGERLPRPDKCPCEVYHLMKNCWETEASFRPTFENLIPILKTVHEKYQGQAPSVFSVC
Method: as §1, §2, §3, §4

[1] = system: IL-2 stimulated STAT5 phosphorylation in Tall-1 human T cell line; test: Inhibition of IL-2 stimulated pSTAT5 in Tall-1 T cells; format: cell-based
Method: Assay 2: Inhibition of IL-2 Stimulated pSTAT5 in Tall-1 T Cells
The potency of test compounds for inhibition of interleukin-2 (IL-2) stimulated STAT5 phosphorylation was measured in the Tall-1 human T cell line (DSMZ) using AlphaLisa.
Phosphorylated STAT5 was measured via the AlphaLISA SureFire Ultra pSTAT5 (Tyr694/699) kit (PerkinElmer).
Compounds were serially diluted in DMSO and dispensed acoustically to empty wells. Assay media (phenol red-free DMEM (Life Technologies) supplemented with 10% FBS (ATCC)) was dispensed (4 μL/well) and plates shaken at 900 rpm for 10 mins. Cells were seeded at 45,000 cells/well in assay media (4 μL/well), and incubated at 37° C., 5% CO2 for 1 hour, followed by the addition of IL-2 (R&D Systems; final concentration 300 ng/mL) in pre-warmed assay media (4 μL) for 30 minutes. […] The lysate was shaken at 900 rpm for 10 minutes at room temperature (RT). Phosphorylated STAT5 was measured via the pSTAT5 AlphaLisa kit (PerkinElmer). Freshly prepared acceptor bead mixture was dispensed onto lysate (5 μL) under green filtered <100 lux light. Plates were shaken at 900 rpm for 2 mins, briefly spun down, and incubated for 2 hrs at RT in the dark. Donor beads were dispensed (5 μL) under green filtered <100 lux light. Plates were shaken at 900 rpm for 2 minutes, briefly spun down, and incubated overnight at RT in the dark. Luminescence was measured with excitation at 689 nm and emission at 570 nm using an EnVision plate reader (PerkinElmer) under green filtered <100 lux light.
To determine the inhibitory potency of test compounds in response to IL-2, the average emission intensity of beads bound to pSTAT5 was measured in a human T cell line. IC50 values were determined from analysis of the inhibition curves of signal intensity versus compound concentration. Data are expressed as pIC50 (negative decadic logarithm IC50) values (mean±standard deviation).

[2] = system: TSLP-evoked TARC release in human peripheral blood mononuclear cells; test: Inhibition of TSLP-evoked TARC release in human peripheral blood mononuclear cells; format: cell-based; conditions: read-out: pIC50 ± st. dev., inhibition of TSLP-evoked TARC release (converted)
Excerpt: Assay 4: Inhibition of TSLP-Evoked TARC Release in Human Peripheral Blood Mononuclear Cells
Thymic stromal lymphopoietin (TSLP) and thymus and activation-regulated chemokine (TARC) are overexpressed in asthmatic airways, and correlate with disease severity. In the lungs, TSLP may be released by bronchial epithelial cells in response to allergens and viral infections. TSLP signals through an IL-7Rα/TSLPR heterodimer found in a broad range of tissues and cell types, including epithelial cells, endothelial cells, neutrophils, macrophages, and mast cells. The binding of TSLP to its receptor induces a conformational change that activates JAK1 and JAK2 to phosphorylate various transcription factors, including STAT3 and STAT5. In immune cells, this triggers a cascade of intracellular events that result in cell proliferation, anti-apoptosis, dendritic cell migration, and production of Th2 cytokines and chemokines. In peripheral blood mononuclear cells (PBMC), TSLP has a proinflammatory effect by activating myeloid dendritic cells to attract and stimulate T cells, a process mediated by the chemoattractant TARC.
The potencies of the test compounds were measured for inhibition of TARC release.
PBMC aliquots (previously isolated from whole blood and frozen in aliquots at −80° C.) from 3 to 5 donors were thawed at 37° C. and added dropwise to 40 mL pre-warmed, sterile-filtered, complete RPMI media in 50 mL Falcon tubes. Cells were pelleted and resuspended in complete media at 2.24×10^6 cells/mL. […] Cells were allowed to rest for 1 hour at 37° C. with 5% CO2.
Compounds were received as 10 mM stock solutions in DMSO. 3.7-fold serial dilutions were performed to generate 9 concentrations of test compound in DMSO at 300× the final assay test concentration. […] 95 μL of 0.2% DMSO in complete media was added to the untreated control wells. Cells were pre-treated with compound for 1 hour at 37° C. with 5% CO2 prior to stimulation.
Immediately prior to use, an aliquot was thawed and prepared at 20× the final assay concentration in complete media. 10 μL of 20×TSLP was added to each well of PBMC, for a final assay concentration of 10 ng/mL. 10 μL of complete media was added to the unstimulated control wells. Cells were stimulated in the presence of compound for 48 hours at 37° C. with 5% CO2.
Following stimulation, the cell culture supernatants were harvested and TARC levels were detected by enzyme-linked immunosorbent assay (ELISA), using Human CCL17/TARC Quantikine ELISA Kit (R&D Systems # DDN00) according to the manufacturer's instructions.
For dose response analysis, the log [test compound (M)] was plotted versus the percent response values for each donor, and IC50 values were determined using a nonlinear regression analysis with GraphPad Prism Software using the 4-parameter sigmoidal dose-response algorithm with variable slope. Data are expressed as mean pIC50 (negative decadic logarithm IC50) values calculated from pIC50 values of individual donors and rounded to one decimal place.

Sequence of JAK2 (O60674 whole entry): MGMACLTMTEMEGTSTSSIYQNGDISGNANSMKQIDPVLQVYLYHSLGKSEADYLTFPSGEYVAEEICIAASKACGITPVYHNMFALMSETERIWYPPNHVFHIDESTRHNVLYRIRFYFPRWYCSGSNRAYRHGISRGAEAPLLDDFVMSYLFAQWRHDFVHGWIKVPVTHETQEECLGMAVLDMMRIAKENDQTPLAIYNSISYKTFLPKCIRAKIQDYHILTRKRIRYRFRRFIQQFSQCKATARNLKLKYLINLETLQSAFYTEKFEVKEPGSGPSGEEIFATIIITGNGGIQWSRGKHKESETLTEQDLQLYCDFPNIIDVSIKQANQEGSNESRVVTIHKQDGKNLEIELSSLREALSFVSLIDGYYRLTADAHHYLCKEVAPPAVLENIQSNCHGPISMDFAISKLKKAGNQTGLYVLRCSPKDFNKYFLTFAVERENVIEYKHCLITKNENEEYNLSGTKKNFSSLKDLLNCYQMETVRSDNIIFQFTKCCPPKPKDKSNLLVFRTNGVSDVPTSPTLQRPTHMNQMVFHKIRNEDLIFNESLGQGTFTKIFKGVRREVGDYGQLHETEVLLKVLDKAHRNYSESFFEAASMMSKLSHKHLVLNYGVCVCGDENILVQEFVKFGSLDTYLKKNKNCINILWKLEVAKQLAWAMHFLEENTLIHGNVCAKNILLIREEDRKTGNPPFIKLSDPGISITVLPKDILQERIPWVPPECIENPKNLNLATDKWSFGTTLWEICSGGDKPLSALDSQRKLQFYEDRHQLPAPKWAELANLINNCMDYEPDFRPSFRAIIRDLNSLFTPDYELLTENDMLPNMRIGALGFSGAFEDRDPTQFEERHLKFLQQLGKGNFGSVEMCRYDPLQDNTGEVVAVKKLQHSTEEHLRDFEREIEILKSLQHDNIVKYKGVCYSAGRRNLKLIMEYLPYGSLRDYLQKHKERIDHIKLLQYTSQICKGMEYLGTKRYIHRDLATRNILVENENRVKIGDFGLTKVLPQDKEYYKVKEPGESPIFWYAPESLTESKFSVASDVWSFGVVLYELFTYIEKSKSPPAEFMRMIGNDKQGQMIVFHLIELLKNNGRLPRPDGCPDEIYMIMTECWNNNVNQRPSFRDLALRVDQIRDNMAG

CCc1cc(O)ccc1-c1ccc2c(-c3nc4c([nH]3)CN(C(C)C)[C@H](C(=O)N3CC(N(C)C)C3)C4)n[nH]c2c1 [Example 7, (S)-(3-(dimethylamino)azetidin-1-yl)(2-(6-(2-ethyl-4-hydroxyphenyl)-1H-indazol-3-yl)-5-isopropyl-4,5,6,7-tetrahydro-3H-imidazo[4,5-c]pyridin-6-yl)methan One]
JAK2 pKi (JAK2; converted from pIC50 using Cheng-Prusoff, ATP 3 μM): 10.5 | Tyk2 pKi (Tyk2): 9.1 | IC50 ([1]; IL-2 300 ng/mL, pSTAT5 AlphaLisa, Tall-1 cells, read-out: Tall-1 pIC50 (converted)): 2.51 nM | IC50 ([2]; human PBMC, 3 to 5 donors, TSLP 10 ng/mL, 48 hours, ELISA): 63.1 nM

CCc1cc(O)ccc1-c1ccc2c(-c3nc4c([nH]3)CN(C)[C@H](C(=O)N3CCN(CCO)C[C@H]3C)C4)n[nH]c2c1 [Example 5, ((S)-2-(6-(2-ethyl-4-hydroxyphenyl)-1H-indazol-3-yl)-5-methyl-4,5,6,7-tetrahydro-3H-imidazo[4,5-c]pyridin-6-yl)((R)-4-(2-hydroxyethyl)-2-methylpiperazin-1-yl)methanone]
Ki (JAK2): 0.0316 nM | IC50 ([1]; TALL-1, read-out: Tall-1 pIC50 (converted)): 1.58 nM | IC50 ([2]; Homo sapiens, PBMC, 48 h): 31.6 nM
